Data taken from paper PMC10932305, “RAR Inhibitors Display Photo-Protective and Anti-Inflammatory Effects in A2E Stimulated RPE Cells In Vitro through Non-Specific Modulation of PPAR or RXR Transactivation” (International Journal of Molecular Sciences, 2024).

Molecular target: T1, RAR-α (retinoic acid receptor α) (Homo sapiens, UniProt P10276)
T1 construct: gene RARA; human recombinant RARα-LBD expressed in insect cells
T1 sequence (P10276 183-417 limits assumed): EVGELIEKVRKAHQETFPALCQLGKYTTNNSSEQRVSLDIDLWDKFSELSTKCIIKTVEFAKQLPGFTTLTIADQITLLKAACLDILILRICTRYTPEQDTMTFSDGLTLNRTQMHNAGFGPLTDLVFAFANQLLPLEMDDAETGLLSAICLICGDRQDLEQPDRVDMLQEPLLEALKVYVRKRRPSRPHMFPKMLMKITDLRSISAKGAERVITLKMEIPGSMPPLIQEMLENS
Test: radioligand competition binding (Eurofins Cerep)

| SMILES | Kd [µM] |
| --- | --- |
| CC1=C(/C=C/C(C)=C/C=C/C(C)=C/c2cc(/C=C/C=C(C)/C=C/C3=C(C)CCCC3(C)C)cc[n+]2CCO)C(C)(C)CCC1 [A2E] | 1.4 |
| CC(=C/C=C/C(C)=C/C=C/C=C(C)/C=C/C=C(C)/C=C/C(=O)O)/C=C/C(=O)O [NBX, norbixin] | 47 |
